Results reported in patent US9249086B2, “Carboxylic acid ALA esters” (Photocure ASA, priority 2012, dated 2016).
Where a name gives a salt, the structure may show the parent alone. Read-outs that look alike come from different tables or passages of the source. Marks after values point to notes of the source that are not given here.

Experiments:
WiDr cells [1] = conditions: MTS assay; for Dark toxicity (cell toxicity in the absence of light): 0.001-1 mM, 4 hours incubation in the dark
Protocol: Stock solutions of the compounds above were prepared by dissolving them in DMSO to a concentration of 100 mM. Concentrations used in the experiments were obtained by diluting the stock solutions with PBS or cell culture medium.
WiDr cells derived from a primary adenocarcinoma of the rectosigmoid colon were subcultured in RPMI 1640 medium (Gibco) containing 10% fetal calf serum, 100 U/ml penicillin, 100 μg/ml streptomycin and 1% glutamine. Cells were split 1:100 twice a week, and maintained at 37° C. and 5% CO2 in a humid environment. For carrying out the experiments, 5×10^5 WiDr cells in 2 ml of the medium described above were added to each well of 6-well plastic tissue-culture plates (Nunc) and left for 48 hr at 37° C. and 5% CO2 in a humid environment for proper attachment to the substrate. The cells were then washed twice with RPMI 1640-medium without serum, followed by the addition to the wells of the appropriate dilutions of the compounds and references above in 2 ml of fresh culture medium to final concentrations of 0.001, 0.003, 0.01, 0.03, 0.1, 0.3 and 1 mM in duplicates. To two wells, only 2 ml of fresh culture medium was added. These untreated cells served as a control. The cells were incubated at 37° C. for four hours in the dark.
Dark toxicity, i.e. cell toxicity in the absence of light, was measured by MTS assay immediately after the above-described 4 hours of incubation with the compounds and references at various concentrations.

WiDr cells [2] = assay: In vitro PpIX formation in cancer cells; type: cell-based
Protocol: These untreated cells served as a control.
After treatment with the compounds of the invention and reference compounds as described above, the cells were washed twice with PBS and scraped off the substrate with a Costar cell scraper into a solution of 1M HClO4 in 50% methanol. Cell debris was removed by centrifugation. PpIX was quantitatively extracted from the cells with this procedure. The PpIX content in each sample was determined fluorometrically using a Perkin Elmer LS50B spectrofluorimeter. PpIX was excited at 407 nm, and the emitted fluorescence was measured at 606 nm using a long pass cut-off filter (530 nm) on the emission side. A standard of known PpIX concentration was added to the samples at concentrations increasing the total fluorescence by 50-100%. The PpIX concentration in each sample was calculated relative to the protein content in control cells as measured by a bicinchoninic acid protein assay.

[3] = tested on: UV-damaged mouse skin versus healthy mouse skin; assay: In vivo skin fluorescence in healthy nude mice and nude mice with UV-damaged skin; conditions: nude mice; for Ratio of skin fluorescence in UV-damaged mouse skin to skin fluorescence in healthy mouse skin: equimolar creams (16% / 14%), about 125 μl, tape-stripped skin, 3 hours in the dark, 10 mice per group; for Selectivity for UV-damaged skin: equimolar creams, 3 hours
Protocol: An experiment was carried out to assess the potential for compound 6 to show selective accumulation in UV-damaged skin. For the assessment, skin fluorescence after application of the compound was measured in vivo in healthy mouse skin and in UV-damaged mouse skin. A nude mice model with UV-damaged skin (actinic damage) was established as described by K. Togsverd-Bo et al., Exp. Dermatol. 2012, 21, 260-264.
Equimolar amounts of compound 2 (1-(isopropyl carboxy)ethyl 5-amino-4-oxopentanoate hydrochloride prepared according to Example 2) and compound 5 (3-carboxypropyl 5 amino-4-oxopentanoate hydrochloride prepared according to Example 5) were formulated as a cream in Unguentum Merck: compound 2: 16%, 160 mg/g and compound 5: 14%, 140 mg/g, respectively.
One group of healthy nude mice (10 mice, control group) and one group of nude mice with UV-damaged skin (10 mice) were included in the experiment. About 125 μl of cream formulation was applied onto the back of each mouse. Prior to cream application, the dorsal skin of each mouse was tape-stripped five times to enhance penetration of the compound: adhesive film (Scotch tape, 3M) was pressed onto the skin of the application area, the tape strip was removed with one quick movement and a new tape strip was used. The mice were kept in the dark for 3 hours prior to skin fluorescence measurement to avoid photobleaching. Skin fluorescence was assessed as described in Example 17 and the mean amount of skin fluorescence for each group of mice was calculated.
The ratio of skin fluorescence [a.u] in UV-damaged mouse skin to skin fluorescence [a.u.] in healthy mouse skin was determined.

[4] = tested on: skin of healthy nude mice; assay: In vivo skin fluorescence study in healthy nude mice; conditions: cream in Unguentum Merck, equimolar (16-19%), about 100 μl on back, 6 hours in the dark, excitation 365 and 405 nm, mean of 5 mice
Protocol: A study was carried out to assess the potential of the compounds of the invention as precursors for photosensitisers for skin application. As such, the compounds of the invention need to be able to penetrate the skin, to be taken up by the cells in the skin and to be converted to photosensitisers. The result of this process can be visualized by exposing the skin to light which excites the photosensitiser molecules and to determine the amount of energy which is released in the form of fluorescence when the excited photosensitiser molecules relax to an energetically lower state.
Compounds 2, 4 and 7 above were formulated as creams in Unguentum Merck. The compounds were tested in equimolar amounts:
3 groups of mice (5 mice/group, each mouse of one group receiving the same cream formulation) were included in the experiment. About 100 μl of cream formulation was applied onto the back of one mouse. The mice were kept in the dark for 6 hours prior to skin fluorescence measurement to avoid photobleaching. For assessment of skin fluorescence, a fluorescence camera (Medeikonos PDD/PDT, Medeikonos AB, Gothenburg, Sweden) was used and images of the back of each mouse were taken. Excitation was carried out at wavelengths of 365 and 405 nm and 2 s illumination time. Each image was calibrated to a fluorescence standard (Uranyl Standard, J&M, Analytische Mess- and Regeltechnik GmbH, Hamburg, Germany) and adjusted for background fluorescence. The mean amount of skin fluorescence in each image was calculated by means of image analyzer-software (MatLab 7.2.0.232, Math-Works, Natick, Mass., USA) and the mean amount of skin fluorescence for each group of mice (5 mice/compound) was calculated.

[5] = tested on: Rat bladder cells (AY-27); assay: PpIX measurements in rat bladder cells; type: cell-based; conditions: AY-27 cells, 2 hours incubation
Protocol: Rat bladder cells (AY-27) were grown in the culture medium (RPMI 1640 supplemented with 9% fetal calf serum 1% L-glutamin (200 mM) and 1% penicillin (10 000 UI), streptomycin (10 000 μg·mL^−1). Exponentially growing cells (AY-27) were incubated for 2 hours with freshly prepared solutions of 0.8 mM HAL (which is a tenth of the concentration which is used for bladder cancer […]). Control cells received serum-free medium without any test or reference compounds. After the incubation, the solutions or the medium was discarded and the cells were rinsed 2 times with ice-cooled PBS. PpIX was extracted from cells using an ice-cold lysis extraction mixture, consisting of ethanol/DMSO/acetic acid (80/20/1, v/v/v). The cell lysate was centrifuged (400 g, 10 min, 2° C.), the pellet was grinded and the suspension was sonicated for 15 min before being centrifuged. The fluorescence signal of PpIX was measured with a Perkin-Elmer LS 55 spectrometer (Perkin-Elmer, Beaconsfield, UK) and expressed as a function of the protein content. The fluorescence intensity at 635 nm in each sample was reported on a calibration curve established with PpIX (Sigma-Aldrich, France) diluted in extraction mixture as described above. The PpIX concentration was expressed relative to the protein content. Briefly, a lysis buffer mixture (1 mM EDTA, 1% Triton X-100 and 10 mM Tris-HCl; pH 7.4) was added to frozen cell dishes together with 500 mM PMSF (anti-protease) solution in DMSO. Lysates were kept on ice for 30 minutes and centrifuged at 4° C. for 20 minutes at 15 000 g. The protein content was then measured against a BSA calibration curve by a Biorad DC protein assay kit (Bio-Rad, France) based on a method developed by Lowry.

[6] = tested on: Rat bladder cells (AY-27); assay: Cytotoxicity in rat bladder cells (MTT test); type: cell-based; conditions: AY-27 cells; for Cytotoxicity: 2 hours, MTT test; for Levels of cytotoxicity compared to HAL: compound at 1 mM
Protocol: All experiments were performed in 4-5 replicates under subdued light. For concentrations of compounds 1 mM, the cytotoxicity was assessed with MTT test. Exponentially growing cells were incubated with freshly prepared solution or medium as described above for 2 hours in 96-well plates. After the incubation, the solutions or the medium was discarded and the cells were washed twice with PBS. Then 50 μl of MTT (2.5 mg·ml^−1) was added to 150 μl of RPMI serum-free medium per well and incubated for 3 hours. Absorbance was measured by dissolving formazan crystals with 50 μl of DMSO. The absorbance was normalized to that of control cells.

[7] = WiDr cells, 0.001-1 mM, 4 hours incubation, * mean of two, ** mean of 3 experiments

Cl.NCC(=O)CCC(=O)O [ALA, 5-ALA hydrochloride, reference compound]
Dark toxicity (cell toxicity in the absence of light) (WiDr cells [1]): no cell toxicity was observed
Max. PpIX content (WiDr cells [2]; [7]): 80* ng/mg protein
Compound concentration for max PpIX formation (WiDr cells [2]; WiDr cells, 4 hours incubation): ≧1 mM

CC(C)OC(=O)C(C)OC(=O)CCC(=O)CN (centres unmarked) [Compound 2, 1-(isopropylcarboxy)ethyl 5-amino-4-oxopentanoate hydrochloride]
Ratio of skin fluorescence in UV-damaged mouse skin to skin fluorescence in healthy mouse skin [3]: 1.14
Selectivity for UV-damaged skin [3]: some selectivity for UV-damaged skin
Skin fluorescence [4]: 31557 a.u.

NCC(=O)CCC(=O)OCCCC(=O)O [Compound 5, 3-carboxypropyl 5-amino-4-oxopentanoate hydrochloride]
Ratio of skin fluorescence in UV-damaged mouse skin to skin fluorescence in healthy mouse skin [3]: 2.72
Selectivity for UV-damaged skin [3]: pronounced selectivity for UV-damaged skin
Dark toxicity (cell toxicity in the absence of light) (WiDr cells [1]): no cell toxicity was observed
PpIX Mean ± SD ([5]; 0.3 mM): 221 ± 32 pmoles/mg protein
PpIX Mean ± SD ([5]; 0.5 mM): 224 ± 35 pmoles/mg protein
PpIX Mean ± SD ([5]; 1 mM): 261 ± 52 pmoles/mg protein
PpIX Mean ± SD ([5]; 5 mM): 250 ± 83 pmoles/mg protein
PpIX Mean ± SD ([5]; 15 mM): 216 ± 11 pmoles/mg protein
Max. PpIX content (WiDr cells [2]; [7]): 30 ng/mg protein
Compound concentration for max PpIX formation (WiDr cells [2]; WiDr cells, 4 hours incubation): 1 mM
Cytotoxicity ([6]; 1 mM): 17 % of control
Cytotoxicity ([6]; 5 mM): 30 % of control
Cytotoxicity ([6]; 15 mM): 37 % of control
Levels of cytotoxicity compared to HAL [6]: comparable and acceptable

NCC(=O)CCC(=O)OCc1ccc(C(=O)O)cc1 [Compound 7, (4-carboxyphenyl)methyl 5-amino-4-oxopentanoate hydrobromide]
Skin fluorescence [4]: 2995 a.u.

NCC(=O)CCC(=O)OCCCCC(=O)O [Compound 8, 4-carboxybutyl 5-amino-4-oxopentanoate hydrochloride]
PpIX Mean ± SD ([5]; 0.3 mM): 243 ± 28 pmoles/mg protein
PpIX Mean ± SD ([5]; 0.5 mM): 219 ± 51 pmoles/mg protein
PpIX Mean ± SD ([5]; 1 mM): 258 ± 62 pmoles/mg protein
PpIX Mean ± SD ([5]; 5 mM): 234 ± 78 pmoles/mg protein
PpIX Mean ± SD ([5]; 15 mM): 213 ± 64 pmoles/mg protein
Cytotoxicity ([6]; 1 mM): 18 % of control
Cytotoxicity ([6]; 5 mM): 26 % of control
Cytotoxicity ([6]; 15 mM): 38 % of control
Levels of cytotoxicity compared to HAL [6]: comparable and acceptable

NCC(=O)CCC(=O)OCCCCCC(=O)O [Compound 9, 5-carboxypentyl 5-amino-4-oxopentanoate hydrochloride]
Dark toxicity (cell toxicity in the absence of light) (WiDr cells [1]): no cell toxicity was observed
Compound concentration for max PpIX formation (WiDr cells [2]): 1 mM
Max. PpIX content (WiDr cells [2]): 40 ng/mg protein

NCC(=O)CCC(=O)OCCCCCCCC(=O)O [Compound 10, 7-carboxyheptyl 5-amino-4-oxopentanoate hydrochloride]
Dark toxicity (cell toxicity in the absence of light) (WiDr cells [1]): no cell toxicity was observed
Compound concentration for max PpIX formation (WiDr cells [2]): 1 mM
Max. PpIX content (WiDr cells [2]): 55* ng/mg protein

NCC(=O)CCC(=O)OCCCCCCCCCC(=O)O [Compound 12, 9-carboxynonyl 5-amino-4-oxopentanoate hydrochloride]
Dark toxicity (cell toxicity in the absence of light) (WiDr cells [1]): no cell toxicity was observed
Max. PpIX content (WiDr cells [2]; [7]): 90* ng/mg protein
Compound concentration for max PpIX formation (WiDr cells [2]; WiDr cells, 4 hours incubation): 0.05 mM

NCC(=O)CCC(=O)OCCCCCCCCCCCC(=O)O [Compound 14, 11-carboxyundecyl 5-amino-4-oxopentanoate hydrochloride]
Dark toxicity (cell toxicity in the absence of light) (WiDr cells [1]): no cell toxicity was observed
Compound concentration for max PpIX formation (WiDr cells [2]): 0.1 mM
Max. PpIX content (WiDr cells [2]): 65* ng/mg protein

Cl.NCC(=O)CCC(=O)OCCCCCCCCCCCCCCCC(=O)O [Compound 15, 15-carboxypentadecyl 5-amino-4-oxopentanoate hydrochloride]
Concentrations at which compound was toxic (dark toxicity) (WiDr cells [1]; 4 hours in the dark): above 0.1 mM
Compound concentration for max PpIX formation (WiDr cells [2]): 0.1 mM
Max. PpIX content (WiDr cells [2]; [7]): 25 ng/mg protein

CCCCCCOC(=O)CCC(=O)CN.Cl [HAL, 5-ALA hexyl ester hydrochloride, reference compound]
Dark toxicity (cell toxicity in the absence of light) (WiDr cells [1]): weak cell toxicity
Minimum cell survival rate (WiDr cells [1]; range of 0.3 to 1 mM, 4 hours in the dark): 85%
Max. PpIX content (WiDr cells [2]; [7]): 94** ng/mg protein
Compound concentration for max PpIX formation (WiDr cells [2]; WiDr cells, 4 hours incubation): 0.1 mM
Cytotoxicity ([6]; 0.8 mM): 15 % of control
